Some results are limits rather than exact numbers.

The target in one test is JAK1 (Homo sapiens (Human), UniProt P23458). Briefly: JAK1 kinase inhibition. It counts as biochemical.
A further test concerns A431 cancer cell line. The test can be described thus: Inhibition of cell growth in A431. The test is classed as cell-based. The conditions noted are these: Homo sapiens, A-431.
A further test relates to Mda-Mb-231 cells. The test can be described thus: Cell viability assay (XTT assay), Mda-Mb-231. The test is classed as cell-based. The following applies: Homo sapiens, 72 hrs. Here is the method: Mda-Mb-231 or A549 cells were seeded onto a 96-well micro plate. Next day compounds were added to cells and incubated for 72 hrs. Compound treatment was done in triplicates. After 72 hrs cell culture media was aspirated from the wells and XTT working solution was added and plates were incubated for 2-5 hrs. The absorbance of the samples was measured with a spectrophotometer at a wavelength of 465 nm. EC50 values were calculated using Graphpad Prism. Tumor cell lines used in the examples of the present invention were procured from ATCC. Description of the cell lines is included in the following table: […]
On the technique in general: Formazan colour is commonly taken as a measure of viable cells.

Another test deals with c-Src (Homo sapiens (Human), UniProt P12931). Briefly: TR-FRET c-Src kinase assay. The test is classed as biochemical. The conditions noted are these: ATP 50 μM; for inhibition at 0.1 µM: read-out: c-SRC % inhibition at 100 nM, 100 nM; for inhibition at 1 µM: read-out: c-SRC % inhibition at 1 μM. Here is the method:
(§1) Compounds were screened in the TR-FRET assay for JAK2 and c-Src kinase inhibition. Ultra light poly GT (Perkin Elmer) was used as the substrate for JAK2 and c-Src with the ATP concentration of 10 μM and 50 μM, respectively. […] The dose-response curve fitting was done using GraphPad Prism software.
A general note: TR-FRET usually uses a lanthanide donor and a delayed reading to cut background.

The next test has as its target JAK2 (Homo sapiens (Human), UniProt O60674). Briefly: TR-FRET JAK2 kinase assay. It counts as biochemical. The following applies: ATP 10 μM; for inhibition at 0.1 µM: read-out: JAK2 % inhibition at 100 nM, 100 nM; for inhibition at 1 µM: read-out: JAK2 % inhibition at 1 μM. Here is the method:
as §1

The next test concerns pStat3. The test can be described thus: In-Cell-Western blot assay for pStat3 (ICW) in A431 cells. It counts as cell-based. The following applies: Homo sapiens, A-431, 2 hrs, read-out: pSTAT3 inhibition. Here is the method: A431 cells were seeded onto a 96-well micro plate. After overnight serum starvation cells were incubated with compounds for 2 hrs. Cells were fixed with 4% paraformaldehyde in PBS and then permeabilized with 0.1% Triton X-100 in PBS (PBST). Cells were blocked with 5% BSA in PBST for 2 hrs, followed by overnight incubation with phospho Stat3 antibody. Cells were washed and incubated with europium-labeled anti-rabbit secondary antibody for 2 hrs. After washing enhancement solution was added to the wells. The micro-plate was read on the Victor instrument at the Europium setting. The Hoechst readings were used to normalize for cell number. IC50 values were calculated with the normalized europium values using Graphpad Prism.

Another test has as its system A549 cells. The test can be described thus: Cell viability assay (XTT assay), A549. The test is classed as cell-based. The conditions noted are these: Homo sapiens, 72 hrs. Here is the method:
Next day compounds were added to cells and incubated for 72 hrs. Compound treatment was done in triplicates. After 72 hrs cell culture media was aspirated from the wells and XTT working solution was added and plates were incubated for 2-5 hrs. […] EC50 values were calculated using Graphpad Prism. Tumor cell lines used in the examples of the present invention were procured from ATCC. Description of the cell lines is included in the following table: […]

Sequence of c-Src (P12931 whole entry, looked up): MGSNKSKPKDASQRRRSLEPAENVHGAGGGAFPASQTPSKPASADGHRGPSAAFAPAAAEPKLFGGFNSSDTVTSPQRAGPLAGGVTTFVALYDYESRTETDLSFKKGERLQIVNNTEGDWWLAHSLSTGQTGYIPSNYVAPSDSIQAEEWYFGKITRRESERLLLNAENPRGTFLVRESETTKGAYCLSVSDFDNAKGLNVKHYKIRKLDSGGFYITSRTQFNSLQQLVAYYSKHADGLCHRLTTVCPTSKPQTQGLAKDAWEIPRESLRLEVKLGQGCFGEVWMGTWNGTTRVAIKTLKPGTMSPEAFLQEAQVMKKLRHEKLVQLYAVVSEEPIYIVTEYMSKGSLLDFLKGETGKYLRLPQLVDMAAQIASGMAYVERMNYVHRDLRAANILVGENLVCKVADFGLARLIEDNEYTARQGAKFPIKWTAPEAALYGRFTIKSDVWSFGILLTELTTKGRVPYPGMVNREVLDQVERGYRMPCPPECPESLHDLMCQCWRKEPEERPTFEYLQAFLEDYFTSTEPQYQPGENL
Sequence of JAK2 (O60674 whole entry): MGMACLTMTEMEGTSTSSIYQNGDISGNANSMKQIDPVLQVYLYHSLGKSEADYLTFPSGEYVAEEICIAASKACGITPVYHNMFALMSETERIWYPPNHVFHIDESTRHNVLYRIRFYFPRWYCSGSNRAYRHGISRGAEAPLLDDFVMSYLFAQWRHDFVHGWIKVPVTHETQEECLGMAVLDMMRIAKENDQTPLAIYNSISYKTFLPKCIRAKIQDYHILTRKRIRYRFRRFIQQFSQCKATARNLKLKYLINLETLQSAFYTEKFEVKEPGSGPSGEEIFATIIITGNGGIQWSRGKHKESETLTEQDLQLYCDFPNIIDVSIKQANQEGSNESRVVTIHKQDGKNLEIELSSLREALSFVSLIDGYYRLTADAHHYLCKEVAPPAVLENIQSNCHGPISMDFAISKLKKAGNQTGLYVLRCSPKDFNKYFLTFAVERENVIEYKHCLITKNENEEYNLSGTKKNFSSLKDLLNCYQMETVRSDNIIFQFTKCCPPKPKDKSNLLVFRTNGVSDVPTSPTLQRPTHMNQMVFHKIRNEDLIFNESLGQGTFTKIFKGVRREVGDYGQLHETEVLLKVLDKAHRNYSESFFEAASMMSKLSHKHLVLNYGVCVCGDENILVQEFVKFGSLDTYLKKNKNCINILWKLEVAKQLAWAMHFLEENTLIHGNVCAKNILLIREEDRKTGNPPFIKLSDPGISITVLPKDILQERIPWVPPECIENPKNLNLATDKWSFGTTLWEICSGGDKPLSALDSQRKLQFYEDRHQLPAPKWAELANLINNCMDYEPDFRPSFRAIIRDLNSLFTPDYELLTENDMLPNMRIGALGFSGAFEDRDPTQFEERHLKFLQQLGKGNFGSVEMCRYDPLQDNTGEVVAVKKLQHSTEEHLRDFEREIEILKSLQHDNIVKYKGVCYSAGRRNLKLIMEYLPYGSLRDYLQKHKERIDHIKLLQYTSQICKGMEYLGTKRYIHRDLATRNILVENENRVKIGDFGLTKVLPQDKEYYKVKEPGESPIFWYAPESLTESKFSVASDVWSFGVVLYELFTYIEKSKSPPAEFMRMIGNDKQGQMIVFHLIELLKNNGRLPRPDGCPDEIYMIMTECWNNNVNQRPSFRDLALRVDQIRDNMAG
Sequence of JAK1 (P23458 whole entry): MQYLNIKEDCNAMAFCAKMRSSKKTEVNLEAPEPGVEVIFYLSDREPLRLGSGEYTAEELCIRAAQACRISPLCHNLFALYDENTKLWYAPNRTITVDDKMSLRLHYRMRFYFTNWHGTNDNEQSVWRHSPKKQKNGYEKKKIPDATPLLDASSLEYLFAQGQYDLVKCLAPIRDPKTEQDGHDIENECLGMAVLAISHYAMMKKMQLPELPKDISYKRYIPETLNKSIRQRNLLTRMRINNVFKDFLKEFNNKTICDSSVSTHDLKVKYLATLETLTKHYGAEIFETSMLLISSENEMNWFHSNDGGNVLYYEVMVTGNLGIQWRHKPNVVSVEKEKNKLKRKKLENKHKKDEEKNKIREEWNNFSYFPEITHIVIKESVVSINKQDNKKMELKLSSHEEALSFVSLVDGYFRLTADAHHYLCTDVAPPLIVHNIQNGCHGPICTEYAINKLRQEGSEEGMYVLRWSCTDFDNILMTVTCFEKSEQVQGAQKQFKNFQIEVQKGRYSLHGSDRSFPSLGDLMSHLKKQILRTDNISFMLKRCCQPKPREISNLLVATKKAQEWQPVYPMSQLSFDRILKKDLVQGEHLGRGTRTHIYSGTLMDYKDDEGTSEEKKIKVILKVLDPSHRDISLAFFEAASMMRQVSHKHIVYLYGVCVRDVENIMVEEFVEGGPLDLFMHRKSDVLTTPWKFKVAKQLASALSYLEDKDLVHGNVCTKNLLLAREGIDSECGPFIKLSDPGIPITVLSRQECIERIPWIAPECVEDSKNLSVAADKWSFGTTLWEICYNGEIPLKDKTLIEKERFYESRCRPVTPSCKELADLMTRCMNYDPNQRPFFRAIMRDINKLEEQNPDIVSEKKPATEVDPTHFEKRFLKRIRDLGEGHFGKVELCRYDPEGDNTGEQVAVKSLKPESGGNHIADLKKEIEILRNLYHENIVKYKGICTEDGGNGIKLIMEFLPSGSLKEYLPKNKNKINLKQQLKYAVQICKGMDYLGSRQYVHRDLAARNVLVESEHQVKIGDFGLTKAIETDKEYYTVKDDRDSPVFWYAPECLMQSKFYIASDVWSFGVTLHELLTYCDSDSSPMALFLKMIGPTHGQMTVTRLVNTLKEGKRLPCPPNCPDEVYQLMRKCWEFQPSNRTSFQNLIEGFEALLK

`Cc1ccc(C(=O)Nc2cccc(C(F)(F)F)c2)cc1N1CCc2nc(Nc3ccc(Cl)cc3)ncc2C1` [Compound 28]: on JAK1 (100 nM), the “JAK1 % inhibition at 100 nM” value was 66%. For the same compound, the “JAK1 % inhibition at 1 μM” value at JAK1 (1 μM) was 79%.
By EC50 is commonly meant the concentration needed to bring the measured effect to its halfway point. Higher therefore signals weaker potency. In general, inhibition refers to the change of the read-out against control, counted positive when it falls. Regarding `Cc1ccc(NC(=O)c2cccc(C(F)(F)F)c2)cc1N1CCc2nc(Nc3ccc(C(=O)N4CCN(C)CC4)cc3)ncc2C1=O` [Compound 75, N-(4-Methyl-3-{2-[4-(4-methyl-piperazine-1-carbonyl)-phenylamino]-5-oxo-7,8-dihydro-5H-pyrido[4,3-d]pyrimidin-6-yl}-phenyl)-3-trifluoromethylbenza-mide], a half-maximal response in the test with A431 cancer cell line (EC50) required 1060 nM. This compound also registered an EC50 with Mda-Mb-231 cells of 4670 nM. The IC50 against c-Src came out at 19 nM. Also, on JAK2, the inhibition at 0.1 µM amounted to 83% and the inhibition at 1 µM came to 97%.
`Cc1ccc(NC(=O)c2cccc(C(F)(F)F)c2)cc1N1CCc2nc(Nc3ccc(CC(=O)N4CCN(C)CC4)cc3)ncc2C1=O` [Compound 76, N-[4-Methyl-3-(2-{4-[2-(4-methyl-piperazin-1-yl)-2-oxo-ethyl]-phenylamino}-5-oxo-7,8-dihydro-5H-pyrido[4,3-d]pyrimidin-6-yl)-phenyl]-3-trifluoromethylbenza-mide]: the EC50 was found to be 135 nM in the test on A431 cancer cell line and 2150 nM with Mda-Mb-231 cells. For the same compound, the figures for the IC50 against c-Src, with pStat3 and against JAK2 were 30 nM, 130 nM and 61 nM, respectively.
With `Cc1ccc(NC(=O)c2cccc(C(F)(F)F)c2)cc1N1CCc2nc(Nc3ccc(C(=O)NCCCN4CCCC4)cc3)ncc2C1=O` [Compound 77, N-(4-methyl-3-(5-oxo-2-(4-(3-(pyrrolidin-1-yl)propylcarbamoyl)phenylamino)-7,8-dihydropyrido[4,3-d]pyrimidin-6(5H)-yl)phenyl)-3-(trifluoromethyl) benzamide], the EC50 with A431 cancer cell line was found to be 512 nM; in the test on Mda-Mb-231 cells, 4920 nM. Further, the IC50 against c-Src is 17 nM; with pStat3 it was 510 nM. Also, the inhibition at 0.1 µM at JAK2 stood at 80%. Besides, on JAK2, the inhibition at 1 µM is 96%.
Take `CNC(=O)c1ccc(Nc2ncc3c(n2)CCN(c2cc(NC(=O)c4cccc(C(F)(F)F)c4)ccc2C)C3)cn1` [Compound 83, 5-{6-[2-Methyl-5-(3-trifluoromethyl-benzoylamino)-phenyl]-5,6,7,8-tetrahydro-pyrido[4,3-d]pyrimidin-2-ylamino}-pyridine-2-carboxylic acid methylamide]: the EC50 with A431 cancer cell line was determined as 240 nM; in the test on Mda-Mb-231 cells, 305 nM. Besides, the results for the IC50 at c-Src, in the test on pStat3 and at JAK2 were 4 nM, 240 nM and 32 nM, respectively.
For `Cc1ccc(NC(=O)c2cccc(C(F)(F)F)c2)cc1N1CCc2nc(Nc3ccc(C(=O)NC4CCN(C)CC4)cc3)ncc2C1` [Compound 92], the EC50 was 26 nM in the test on A431 cancer cell line and 5 nM with Mda-Mb-231 cells. The IC50 in the test on pStat3 came out at 26 nM.
For `Cc1ccc(NC(=O)c2cccc(C(F)(F)F)c2)cc1N1CCc2nc(Nc3cncnc3)ncc2C1` [Compound 94, N-{4-Methyl-3-[2-(pyrimidin-5-ylamino)-7,8-dihydro-5H-pyrido[4,3-d]pyrimidin-6-yl]-phenyl}-3-trifluoromethyl-benzamide], the EC50 is 180 nM in the test with A431 cancer cell line and 50 nM in the test with Mda-Mb-231 cells. Besides, the IC50 on c-Src amounted to 2 nM; with pStat3 it was 160 nM; against JAK2, 19 nM.
In the case of `Cc1ccc(NC(=O)c2cccc(C(F)(F)F)c2)cc1N1CCc2nc(Nc3ccc(C(=O)NCCO)cc3)ncc2C1` [Compound 98], the EC50 worked out at 61 nM in the test on A431 cancer cell line and 50 nM in the test on Mda-Mb-231 cells. Moreover, the IC50 on c-Src was determined as 1 nM; in the test with pStat3 it was 60 nM; at JAK2, 7 nM.
For `Cc1ccc(NC(=O)c2cccc(C(F)(F)F)c2)cc1N1CCc2nc(Nc3ccc(C(=O)N4CCCC4)cc3)ncc2C1` [Compound 99, N-(4-Methyl-3-{2-[4-(pyrrolidine-1-carbonyl)-phenylamino]-7,8-dihydro-5H-pyrido[4,3-d]pyrimidin-6-yl}-phenyl)-3-trifluoromethyl-benzamide], in that order: 290 nM, 120 nM, 6 nM, 300 nM and 14 nM.
Take `Cc1ccc(NC(=O)c2ccc(C(F)(F)F)s2)cc1N1CCc2nc(Nc3ccc(OCCN4CCCC4)cc3)ncc2C1` [Compound 106, 5-Trifluoromethyl-thiophene-2-carboxylic acid (4-methyl-3-{2-[4-(2-pyrrolidin-1-yl-ethoxy)-phenylamino]-7,8-dihydro-5H-pyrido[4,3-d]pyrimidin-6-yl}-phenyl)-amide]: the EC50 with A431 cancer cell line turned out to be 220 nM; in the test on Mda-Mb-231 cells it was 310 nM. The IC50 amounted to 2 nM at c-Src, 220 nM in the test on pStat3 and 18 nM against JAK2. Moreover, the inhibition at 0.1 µM on c-Src came out at 99%; at JAK2 it was 85%. Further, the inhibition at 1 µM on c-Src stood at 100%; at JAK2, 98%.
Take `Cc1ccc(NC(=O)N2CCCCC2)cc1N1CCc2nc(Nc3ccc(OCCN4CCCC4)cc3)ncc2C1` [Compound 107, Piperidine-1-carboxylic acid (4-methyl-3-{2-[4-(2-pyrrolidin-1-yl-ethoxy)-phenylamino]-7,8-dihydro-5H-pyrido[4,3-d]pyrimidin-6-yl}-phenyl)-amide]: the EC50 turned out to be 120 nM in the test with A431 cancer cell line and 610 nM in the test with Mda-Mb-231 cells. Also, the IC50 is 1 nM at c-Src, 120 nM in the test with pStat3 and 40 nM at JAK2. In addition, the results for the inhibition at 0.1 µM at c-Src and at JAK2 were 93% and 72%, respectively. Further, the inhibition at 1 µM on c-Src came out at 98%; on JAK2 it was 94%.
`Cc1ccc(NC(=O)c2cccc(C(F)(F)F)c2)cc1N1CCc2nc(Nc3ccc(C(=O)N4CCN(C)CC4)nc3)ncc2C1` [Compound 132, N-(4-Methyl-3-{2-[6-(4-methyl-piperazine-1-carbonyl)-pyridin-3-ylamino]-7,8-dihydro-5H-pyrido[4,3-d]pyrimidin-6-yl}-phenyl)-3-trifluoromethyl-benzamide]: the results for the EC50 in the test on A549 cells and with Mda-Mb-231 cells were 47 nM and 41 nM, respectively. Besides, the IC50 on c-Src is 5 nM; in the test on pStat3, 480 nM; against JAK2, 3 nM.
Regarding `Cc1ccc(NC(=O)c2cccc(C(F)(F)F)c2)cc1N1CCc2nc(Nc3ccc(S(=O)(=O)NC4CC4)cc3)ncc2C1` [Compound 165, N-{3-[2-(4-Cyclopropylsulfamoyl-phenylamino)-7,8-dihydro-5H-pyrido[4,3-d]pyrimidin-6-yl]-4-methyl-phenyl}-3-trifluoromethyl-benzamide], the EC50 in the test with A431 cancer cell line was determined as 320 nM; in the test on Mda-Mb-231 cells it was 440 nM. Further, the results for the IC50 against c-Src, with pStat3 and against JAK2 were 16 nM, 257 nM and 54 nM, respectively. In addition, the inhibition at 0.1 µM on c-Src worked out at 93%; at JAK2, 74%. Besides, the inhibition at 1 µM is 98% on c-Src and 93% at JAK2.
As to `Cc1cnc(Nc2ccc(OCCN3CCCC3)cc2)nc1Nc1cccc(S(=O)(=O)NC(C)(C)C)c1` [TG101348, reference compound], the EC50 came out at 1200 nM with A549 cells and 680 nM with Mda-Mb-231 cells. For the same compound, the IC50 in the test on pStat3 was over 10000 nM.

(Values after US8962637B2, “Bicyclic compounds and their uses as dual c-SRC/JAK inhibitors” (Debiopharm S.A., priority 2010, dated 2015).)
